Data: paper PMC6646960 (ACS Chemical Biology, 2019)

Biological target: T1, DC-SIGN (Homo sapiens, UniProt Q9NNX6)
T1 sequence (Q9NNX6 254-404): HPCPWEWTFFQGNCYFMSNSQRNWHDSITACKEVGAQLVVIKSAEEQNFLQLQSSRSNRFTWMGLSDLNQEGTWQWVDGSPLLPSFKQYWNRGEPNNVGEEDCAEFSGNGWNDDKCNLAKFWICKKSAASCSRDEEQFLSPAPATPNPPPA
Assay: 1H-15N HSQC NMR titration
Type: binding

## C[C@@H]1OC(O)[C@@H](O)[C@H](O)[C@@H]1O (stereo partly shown) [compound 4, Fuc]
  Kd: 4.1 ± 0.7 mM
